Experimental data published in ChEMBL document CHEMBL1157277, “Antifungal and antibacterial metabolites from a sclerotium-colonizing isolate of Mortierella vinacea” (1999).
Activity calls are given as the source filed them. The rule behind the calls is not given here.

Key:
Aspergillus flavus = assay: Antimicrobial activity against Aspergillus flavus NRRL 6541 at 250 ug/disk by standard disk assay; format: functional, organism-based
Fusarium verticillioides [1] = assay: Antimicrobial activity against Fusarium verticillioides NRRL 25457 at 250 ug/disk by standard disk assay after 48 hrs; format: functional; details: for zone of inhibition at 250 µg/disc: NRRL 25457, 48 h, read-out: IZ
Bacillus subtilis [2] = assay: Antimicrobial activity against Bacillus subtilis ATCC 6051 at 50 ug/disk by standard disk assay; format: functional, organism-based
Staphylococcus aureus [3] = assay: Antimicrobial activity against Staphylococcus aureus ATCC 14053 at 50 ug/disk by standard disk assay; format: functional, organism-based
Fusarium verticillioides [4] = assay: Antimicrobial activity against Fusarium verticillioides NRRL 25457 at 100 ug/disk by standard disk assay after 48 hrs; format: functional, organism-based
Candida albicans [5] = assay: Antimicrobial activity against Candida albicans ATCC 10453 at 50 ug/disk by standard disk assay; format: functional; details: read-out: IZ
Candida albicans [6] = assay: Antimicrobial activity against Candida albicans ATCC 10453 at 100 ug/disk by standard disk assay; format: functional; details: read-out: IZ
Bacillus subtilis [7] = assay: Antimicrobial activity against Bacillus subtilis ATCC 6051 at 100 ug/disk by standard disk assay; format: functional; details: read-out: IZ
Staphylococcus aureus [8] = assay: Antimicrobial activity against Staphylococcus aureus ATCC 14053 at 100 ug/disk by standard disk assay; format: functional; details: read-out: IZ

**Q.** For `O=C(O)c1cccnc1` [NIACIN], which Activity (Aspergillus flavus) is on record?
**A.** inactive

**Q.** What about the zone of inhibition at 250 µg/disc (Fusarium verticillioides [1]) of the same compound?
**A.** 30 mm

**Q.** What does the source list for `COC(=O)[C@H](C)NC(=O)c1c(C)c(C)c(O)c(C)c1O`?
**A.** Activity (Aspergillus flavus): inactive; Activity (Fusarium verticillioides [1]): inactive

**Q.** With GENTAMICIN SULFATE as the compound, how does the inhibition zone (IZ) (Bacillus subtilis [2]) read?
**A.** 24 mm

**Q.** What about the inhibition zone (IZ) (Staphylococcus aureus [3]) of the same compound?
**A.** 24 mm

**Q.** NYSTATIN was tested. Which inhibition zone (IZ) (Fusarium verticillioides [4]) did it give?
**A.** 19 mm

**Q.** Which results are given for `COC(=O)CNC(=O)c1c(C)c(C)c(O)c(C)c1O`?
**A.** Activity (Aspergillus flavus): inactive; Activity (Fusarium verticillioides [1]): inactive

**Q.** With `CCCCC[C@@H](O)[C@H]1C(=O)O[C@H](C)[C@@H](O)/C=C/C=C/C=C/C=C/C=C(\C)[C@@H](O)C[C@H](O)C[C@H](O)C[C@H](O)C[C@H](O)C[C@H](O)C[C@@H]1O` [FILIPIN] as the compound, how does the zone of inhibition at 50 µg/disc (Candida albicans [5]) read?
**A.** 15 mm

**Q.** How did the zone of inhibition at 100 µg/disc (Candida albicans [6]) turn out when `CSC(=O)c1c(C)c(C)c(O)c(C)c1O` [MORTIVINACIN A] was run?
**A.** 15 mm

**Q.** And the Activity (Aspergillus flavus)?
**A.** inactive

**Q.** And the zone of inhibition at 250 µg/disc (Fusarium verticillioides [1])?
**A.** 30 mm

**Q.** Which results are given for `COC(=O)c1c(C)c(C)c(O)c(C)c1O`?
**A.** Activity (Aspergillus flavus): inactive; zone of inhibition at 100 µg/disc (Bacillus subtilis [7]): 10 mm; zone of inhibition at 100 µg/disc (Staphylococcus aureus [8]): 10 mm; zone of inhibition at 250 µg/disc (Fusarium verticillioides [1]): 30 mm
